PubChem BioAssay AID651547 (The Scripps Research Institute Molecular Screening Center, 2012)
The source made the active and inactive calls.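 How the source made its calls: active means potency, meaning EC50, at or under 10 µM; inactive means the rest.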

Biological target: Melanocortin receptor 4 (Homo sapiens) (UniProt P32245)
Assay: MC4R agonists of cAMP signaling, late-stage follow-up, cell-based, FRET (AID 651547)
Conditions: MC4R-expressing cells, cAMP TR-FRET (LANCE Ultra), agonist

Melanocortin receptor 4 (Homo sapiens), sequence (P32245 whole entry, looked up): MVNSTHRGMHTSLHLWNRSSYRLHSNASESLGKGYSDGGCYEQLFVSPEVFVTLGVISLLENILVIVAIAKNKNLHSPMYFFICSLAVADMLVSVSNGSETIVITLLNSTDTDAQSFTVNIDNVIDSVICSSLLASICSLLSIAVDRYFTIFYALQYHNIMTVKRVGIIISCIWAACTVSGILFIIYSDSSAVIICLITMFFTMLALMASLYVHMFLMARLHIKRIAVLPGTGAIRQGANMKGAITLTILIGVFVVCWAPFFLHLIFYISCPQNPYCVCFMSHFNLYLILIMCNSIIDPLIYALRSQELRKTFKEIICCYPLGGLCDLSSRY

| SMILES | EC50 |
| --- | --- |
| CCC1CCCCN1S(=O)(=O)c1ccc(NC(=O)c2nc(S(C)(=O)=O)ncc2Cl)cc1 (centres undefined) | > 50 µM (inactive) |
| COc1ccc(N(C(C)=O)C(C(=O)NC2CCCC2)c2cccs2)cc1OC (centres undefined) | > 50 µM (inactive) |
| Cc1ccccc1CN1Cc2cnnn2-c2ccccc2C1C#N (centres undefined) | > 50 µM (inactive) |
| CCC1CCCCN1S(=O)(=O)c1ccc(NC(=O)c2cccc(S(C)(=O)=O)c2)cc1 (centres undefined) | > 50 µM (inactive) |
| CC(=O)c1ccc(Nc2nc3ccc(C(=O)N(CCC(C)C)CCC(C)C)cc3n2CCCN2CCCCC2)cc1 | > 50 µM (inactive) |
| O=C1c2cccc3cccc(c23)C(=O)N1CC1CCN(CC(O)COc2ccc3ccccc3c2)CC1 (centres undefined) | > 50 µM (inactive) |
| CCC1CCCCN1S(=O)(=O)c1ccc(NC(=O)c2ccnc(SC)n2)cc1 (centres undefined) | > 50 µM (inactive) |
| CNC(=O)c1cc(Oc2ccc(NC(=O)CNc3ccc(Cl)c(C(F)(F)F)c3)cc2)ccn1 | > 50 µM (inactive) |
| CC1CCCCN1S(=O)(=O)c1ccc(NC(=O)c2nc(S(C)(=O)=O)ncc2Cl)cc1 (centres undefined) | > 50 µM (inactive) |
| COc1ccccc1C1(CCNC(C)c2cccs2)CCOC(C(C)C)C1 (centres undefined) | > 50 µM (inactive) |
| CNC(=O)c1cc(Oc2ccc(NC(=O)Nc3ccc(Cl)c(C(F)(F)F)c3)cc2)ccn1 | > 50 µM (inactive) |
| CCC1CCCCN1S(=O)(=O)c1ccc(NC(=O)c2ccccc2)cc1 (centres undefined) | > 50 µM (inactive) |
| C#CC(=O)N(c1ccc(OC)c(OC)c1)C(C(=O)NC1CCCC1)c1cccs1 (centres undefined) | > 50 µM (inactive) |
| CNC(=O)c1cc(Oc2ccc(NCC(=O)Nc3ccc(Cl)c(C(F)(F)F)c3)cc2)ccn1 | > 50 µM (inactive) |
